Laboratory results as given in publication PMC7834599 (Bioorganic & Medicinal Chemistry Letters, 2020).

What was measured:
ASC = ASC oligomerization assay in THP-1 cells; assay type: cell-based, Human; conditions: LPS-ATP NLRP3 activated THP-1 cells, western blot
AIM2 inflammasome = target: T1, AIM2 inflammasome (Homo sapiens, UniProt O14862); assay: Poly; assay type: cell-based; conditions: THP-1 cells, Poly (dA:dT)
T1 sequence (O14862 1-343): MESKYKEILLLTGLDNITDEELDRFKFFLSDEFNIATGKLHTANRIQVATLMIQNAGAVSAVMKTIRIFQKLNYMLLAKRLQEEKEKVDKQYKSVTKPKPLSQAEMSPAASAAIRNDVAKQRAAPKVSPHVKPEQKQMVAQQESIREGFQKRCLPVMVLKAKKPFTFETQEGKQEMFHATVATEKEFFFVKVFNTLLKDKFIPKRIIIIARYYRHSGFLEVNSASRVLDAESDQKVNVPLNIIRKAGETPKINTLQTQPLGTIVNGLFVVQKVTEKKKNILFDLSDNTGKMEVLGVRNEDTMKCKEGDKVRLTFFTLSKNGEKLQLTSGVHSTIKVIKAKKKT

TNF-α = TNF-α release in LPS-ATP treated THP-1 cells; assay type: cell-based, Human
CYP2C9 = CYP2C9 (Homo sapiens, UniProt P11712); assay: CYP inhibition in human liver microsomes; assay type: in vitro ADME
CYP2C8 = target: T2, CYP2C8 (Homo sapiens, UniProt P10632); assay: CYP inhibition in human liver microsomes; assay type: in vitro ADME
T2 sequence (P10632 1-490): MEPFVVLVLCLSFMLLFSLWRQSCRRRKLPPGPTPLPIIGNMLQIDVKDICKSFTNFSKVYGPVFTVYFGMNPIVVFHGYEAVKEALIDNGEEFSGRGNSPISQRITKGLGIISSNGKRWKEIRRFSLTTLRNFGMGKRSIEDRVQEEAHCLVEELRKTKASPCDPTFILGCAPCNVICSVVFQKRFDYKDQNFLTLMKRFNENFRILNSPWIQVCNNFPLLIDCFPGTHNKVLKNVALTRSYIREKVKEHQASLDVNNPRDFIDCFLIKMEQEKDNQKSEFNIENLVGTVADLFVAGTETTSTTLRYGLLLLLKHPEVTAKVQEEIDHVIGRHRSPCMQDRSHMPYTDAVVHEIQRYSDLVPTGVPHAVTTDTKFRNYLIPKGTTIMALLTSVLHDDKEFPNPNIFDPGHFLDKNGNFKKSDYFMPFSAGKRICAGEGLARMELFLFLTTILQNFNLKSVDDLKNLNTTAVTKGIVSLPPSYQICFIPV

NLRP3 inflammasome = NLRP3 inflammasome (Homo sapiens, UniProt Q96P20); assay: IL-1β release assay, NLRP3 inflammasome activation in THP-1 cells; assay type: cell-based
Sequence of NLRP3 inflammasome (Q96P20 whole entry): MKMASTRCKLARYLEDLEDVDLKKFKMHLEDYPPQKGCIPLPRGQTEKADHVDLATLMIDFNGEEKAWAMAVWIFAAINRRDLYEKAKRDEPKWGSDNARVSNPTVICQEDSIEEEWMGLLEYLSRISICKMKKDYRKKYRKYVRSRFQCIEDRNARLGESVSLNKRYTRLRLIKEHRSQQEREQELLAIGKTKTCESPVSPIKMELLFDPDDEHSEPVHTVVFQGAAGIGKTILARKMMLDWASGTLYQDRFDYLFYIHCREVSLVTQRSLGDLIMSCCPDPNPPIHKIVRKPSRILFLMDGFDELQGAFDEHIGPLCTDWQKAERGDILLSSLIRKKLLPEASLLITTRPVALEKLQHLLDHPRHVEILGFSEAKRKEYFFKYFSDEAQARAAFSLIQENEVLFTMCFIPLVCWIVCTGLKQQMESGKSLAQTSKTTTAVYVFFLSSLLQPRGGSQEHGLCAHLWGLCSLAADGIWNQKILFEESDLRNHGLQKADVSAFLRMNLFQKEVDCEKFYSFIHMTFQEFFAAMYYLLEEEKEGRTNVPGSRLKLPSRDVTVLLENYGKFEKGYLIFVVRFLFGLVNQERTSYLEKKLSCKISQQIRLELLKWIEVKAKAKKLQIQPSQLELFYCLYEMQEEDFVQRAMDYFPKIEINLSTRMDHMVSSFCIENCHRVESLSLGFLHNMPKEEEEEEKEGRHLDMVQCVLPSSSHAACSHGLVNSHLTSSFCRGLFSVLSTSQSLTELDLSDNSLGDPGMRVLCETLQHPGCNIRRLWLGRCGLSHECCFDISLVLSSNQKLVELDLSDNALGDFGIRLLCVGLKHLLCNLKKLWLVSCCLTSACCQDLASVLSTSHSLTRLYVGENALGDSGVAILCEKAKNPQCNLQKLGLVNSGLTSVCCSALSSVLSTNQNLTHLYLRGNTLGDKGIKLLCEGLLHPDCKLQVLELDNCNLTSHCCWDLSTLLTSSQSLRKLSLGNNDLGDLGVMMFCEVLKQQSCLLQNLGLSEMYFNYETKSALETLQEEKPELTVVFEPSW

Sequence of CYP2C9 (P11712 whole entry): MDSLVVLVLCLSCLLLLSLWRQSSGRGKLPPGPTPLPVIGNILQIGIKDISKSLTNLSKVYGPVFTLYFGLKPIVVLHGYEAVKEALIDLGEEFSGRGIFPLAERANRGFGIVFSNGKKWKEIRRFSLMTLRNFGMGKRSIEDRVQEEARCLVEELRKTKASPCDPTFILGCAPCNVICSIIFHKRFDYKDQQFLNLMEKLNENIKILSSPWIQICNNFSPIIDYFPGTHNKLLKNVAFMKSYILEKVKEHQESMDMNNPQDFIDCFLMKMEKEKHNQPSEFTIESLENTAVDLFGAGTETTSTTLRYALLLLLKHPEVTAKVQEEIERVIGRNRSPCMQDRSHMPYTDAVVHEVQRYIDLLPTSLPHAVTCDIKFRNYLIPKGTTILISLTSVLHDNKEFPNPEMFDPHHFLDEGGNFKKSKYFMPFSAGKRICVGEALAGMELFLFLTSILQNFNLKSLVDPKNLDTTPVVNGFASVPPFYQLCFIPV

Row | inhibition of secreted IL-1β in AIM2 inflammasome activation (in words) (AIM2 inflammasome) | IC50 (TNF-α; Homo sapiens, THP-1, read-out: TNF-α IC50) | CYP2C9 inhibition (in words) (CYP2C9) | CYP2C8 inhibition (in words) (CYP2C8) | IC50 (NLRP3 inflammasome) | inhibition at 1 µM (NLRP3 inflammasome; THP-1, read-out: inhibition of secreted IL-1β) | SMILES | ASC oligomerization (in words) (ASC) | inhibition of secreted TNF-α (in words) (TNF-α; THP-1 cells, LPS-ATP, up to high concentration)
1 | no effect | > 10 µM | inhibit | inhibit |  |  | O=C(Nc1c2c(cc3c1CCC3)CCC2)NS(=O)(=O)/C=C/c1nccs1 [Compound 7, (E)-N-((1,2,3,5,6,7-hexahydro-s-indacen-4-yl)carbamoyl)-2-(thiazol-2-yl)ethene-1-sulfonamide] | blocked the oligomerisation of ASC | not affected
2 |  |  |  |  | > 1 µM | < 50% | O=C(NS(=O)(=O)/C=C/c1nccs1)c1c2c(cc3c1OCC3)OCC2 [Compound 20] |  | 
